The source of these data is ChEMBL document CHEMBL1128271, “Computer-aided molecular modeling, synthesis, and biological evaluation of 8-(benzyloxy)-2-phenylpyrazolo[4,3-c]quinoline as a novel benzodiazepine receptor agonist ligand” (J Med Chem, 1995).

As a reminder, the pIC50 is −log10 of the IC50, conventionally taken in molar units.

The target in the assay is GABA-A receptor; anion channel. Briefly: Inhibition of [3H]-Ro- 15-1788 binding to GABA-A benzodiazepine receptor in rat brain membrane. Type of assay: cell membranes.

pIC50: −log10 of the molar value.

For `O=c1c2cnc3c(OCc4ccccc4)cccc3c2[nH]n1-c1ccccc1`, the negative logarithm of the IC50 (pIC50) was less than 6.00.

`COc1cccc2ncc3c(=O)n(-c4ccccc4)[nH]c3c12` showed a pIC50 of 9.17.

`O=c1c2cnc3cc(OCc4ccccc4)ccc3c2[nH]n1-c1ccccc1` had a pIC50 of less than 6.00.

In turn, `O=c1c2cnc3cccc(OCc4ccccc4)c3c2[nH]n1-c1ccccc1` had a negative-log IC50 (pIC50) of less than 3.00.

The compound `O=c1c2cnc3ccc(OCc4ccccc4)cc3c2[nH]n1-c1ccc(Cl)cc1` showed a pIC50 of 7.28.

`O=c1c2cnc3cccc(O)c3c2[nH]n1-c1ccccc1` gave a pIC50 of 9.13.

Compound `O=c1c2cnc3ccc(OCc4ccccc4)cc3c2[nH]n1-c1ccccc1` gave a pIC50 of 8.43.
